Assay results: patent US20210163412A1, “NOVEL SULFONEUREA COMPOUNDS” (Inflazome Limited, priority 2018, published 2021)

What was measured:
[1] = target: T1, NLRP3 (Homo sapiens, UniProt Q96P20); assay: THP-1 cells pyroptosis assay; type: cell-based; set-up: Seed THP-1 cells (25,000 cells/well) containing 1.0 μg/ml LPS; host or cells: THP-1 cells; conditions: LPS 1 μg/ml, nigericin 5 μM, resazurin readout
Method: The cells were routinely passaged and grown to confluency (˜10^6 cells/ml). On the day of the experiment, THP-1 cells were harvested and resuspended into RPMI medium (without FBS). The cells were then counted and viability (>90%) checked by Trypan blue (Sigma #T8154). […] To this diluted cell solution was added LPS (Sigma #L4524) to give a 1 μg/ml Final Assay Concentration (FAC). 40 μl of the final preparation was aliquoted into each well of a 96-well plate. The plate thus prepared was used for compound screening.
The following method step-by-step assay was followed for compound screening. • 1. […] Incubate for 3 hrs at 37° C., 5% CO2 • 4. Add 5 μl nigericin (Sigma #N7143) (FAC 5 μM) to all wells • 5. Incubate for 1 hr at 37° C., 5% CO2 • 6. At the end of the incubation period, spin plates at 300×g for 3 mins and remove supernatant • 7. Then add 50 μl of resazurin (Sigma #R7017) (FAC 100 μM resazurin in RPMI medium without FBS) and incubate plates for a further 1-2 hrs at 37° C. and 5% CO2 • 8. […] IC50 data is fitted to a non-linear regression equation (log inhibitor vs response-variable slope 4-parameters)

[2] = target: T1, NLRP3; assay: Human whole blood IL-1β release assay; type: cell-based; set-up: Human whole blood in Li-heparin tubes was obtained from healthy donors; from tissue; host or cells: human whole blood from healthy donors; conditions: LPS 1 μg/ml, nigericin, IL-1β in supernatant (AlphaLisa), read-out: HWB IC50
Method: For systemic delivery, the ability to inhibit NLRP3 when the compounds are present within the bloodstream is of great importance. For this reason, the NLRP3 inhibitory activity of a number of compounds in human whole blood was investigated in accordance with the following protocol.
Human whole blood in Li-heparin tubes was obtained from healthy donors from a volunteer donor panel. • 1. […] Incubate for 3 hrs at 37° C., 5% CO2 • 4. Add 1 μl nigericin (Sigma #N7143) ([…]) to all wells • 5. Incubate for 1 hr at 37° C., 5% CO2 • 6. At the end of the incubation period, spin plates at 300×g for 5 mins to pellet cells and remove 20 μl of supernatant and add to 96-well v-bottom plates for IL-1β analysis (note: these plates containing the supernatants can be stored at −80° C. to be analysed at a later date) • 7. IL-1β was measured according to the manufacturer protocol (Perkin Elmer-AlphaLisa IL-1 Kit AL220F-5000) • 8. IC50 data is fitted to a non-linear regression equation (log inhibitor vs response-variable slope 4-parameters)

T1 sequence (Q96P20 whole entry): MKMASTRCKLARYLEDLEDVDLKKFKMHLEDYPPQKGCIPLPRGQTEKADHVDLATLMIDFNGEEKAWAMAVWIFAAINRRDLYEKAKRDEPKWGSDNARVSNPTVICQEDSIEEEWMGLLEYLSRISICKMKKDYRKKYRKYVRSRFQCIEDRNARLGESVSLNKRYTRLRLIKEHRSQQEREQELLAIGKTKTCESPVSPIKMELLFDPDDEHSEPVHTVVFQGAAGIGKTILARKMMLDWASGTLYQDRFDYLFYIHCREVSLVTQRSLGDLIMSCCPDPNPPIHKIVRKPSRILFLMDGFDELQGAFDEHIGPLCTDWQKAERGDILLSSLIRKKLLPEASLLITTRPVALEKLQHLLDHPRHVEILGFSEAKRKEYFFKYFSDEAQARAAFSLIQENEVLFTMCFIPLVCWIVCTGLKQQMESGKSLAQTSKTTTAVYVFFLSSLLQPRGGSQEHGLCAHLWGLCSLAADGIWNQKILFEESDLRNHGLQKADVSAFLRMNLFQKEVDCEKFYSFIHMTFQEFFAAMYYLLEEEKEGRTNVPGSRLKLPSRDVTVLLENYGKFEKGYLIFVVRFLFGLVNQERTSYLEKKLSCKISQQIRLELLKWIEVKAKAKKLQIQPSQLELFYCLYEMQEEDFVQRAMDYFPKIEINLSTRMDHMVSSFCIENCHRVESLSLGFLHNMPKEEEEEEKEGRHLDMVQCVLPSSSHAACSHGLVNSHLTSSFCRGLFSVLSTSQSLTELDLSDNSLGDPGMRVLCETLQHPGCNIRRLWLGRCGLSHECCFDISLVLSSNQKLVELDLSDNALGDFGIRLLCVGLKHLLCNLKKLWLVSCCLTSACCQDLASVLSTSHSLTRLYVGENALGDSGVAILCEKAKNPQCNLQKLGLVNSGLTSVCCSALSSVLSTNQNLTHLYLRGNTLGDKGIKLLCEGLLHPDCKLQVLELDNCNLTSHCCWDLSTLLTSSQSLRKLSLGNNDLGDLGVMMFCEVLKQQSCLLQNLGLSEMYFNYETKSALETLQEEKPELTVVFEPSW

| Compound | IC50 [1] | IC50 [2] |
| --- | --- | --- |
| Cc1cc2c(c(NC(=O)NS(C)(=O)=O)c1-c1ccnc(OC3CCOC3)c1)CCC2 (stereo not drawn) [Example 53] | ≤ 250 nM | 250 to 500 nM |
| COc1cc(-c2cc(F)cc(C(C)C)c2NC(=O)NS(=O)(=O)c2ccn(C(C)C)n2)cc(C)n1 [comp ex 2, reference compound] | 2000 to 5000 nM | – |
| Cc1cc2c(c(NC(=O)NS(C)(=N)=O)c1-c1ccnc(OC3CCN(C)CC3)c1)CCC2 (stereo not drawn) [Example 80, N-((6-Methyl-5-(2-((1-methylpiperidin-4-yl)oxy)pyridin-4-yl)-2,3-dihydro-1H-inden-4-yl)carbamoyl)methanesulfonimidamide] | ≤ 250 nM | 500 to 1000 nM |
| CC(C)(CN1CCC1)n1ccc(S(=O)(=O)NC(=O)Nc2c(-c3ccnc(OC4CC4)c3)ccc3c2CCC3)n1 [Example 65] | ≤ 250 nM | 250 to 500 nM |
| CN1CCC(Oc2cc(-c3cc(F)cc(-c4ccccc4)c3NC(=O)NS(C)(=O)=O)ccn2)CC1 [Example 42] | 1000 to 2000 nM | 1000 to 2000 nM |
| CC(C)n1ccc(S(=O)(=O)NC(=O)Nc2c(-c3ccnc(OC4CCOCC4)c3)ccc3c2CCC3)n1 [Example 73] | ≤ 250 nM | 500 to 1000 nM |
| CN1CCC(Oc2cc(-c3ccc4c(c3NC(=O)NS(C)(=O)=O)CCC4)ccn2)CC1 [Example 35] | ≤ 250 nM | ≤ 250 nM |
| CC(C)n1ccc(S(=O)(=O)NC(=O)Nc2c(-c3ccnc(OC4CCC4)c3)ccc3c2CCC3)n1 [Example 75] | ≤ 250 nM | 1000 to 2000 nM |
| CC(C)n1ccc(S(=O)(=O)NC(=O)Nc2c(-c3ccnc(OC4CCCOC4)c3)ccc3c2CCC3)n1 (stereo not drawn) [Example 74] | ≤ 250 nM | 1000 to 2000 nM |
| CC(C)n1ccc(S(=O)(=O)NC(=O)Nc2c(-c3ccnc(Oc4ccccc4)c3)ccc3c2CCC3)n1 [Example 77] | ≤ 250 nM | 5000 to 10000 nM |
| CN1CCC(Oc2cc(-c3cc(F)cc(C4CCCC4)c3NC(=O)NS(C)(=O)=O)ccn2)CC1 [Example 41] | ≤ 250 nM | 1000 to 2000 nM |
| CN1CCC(COc2cc(-c3ccc4c(c3NC(=O)NS(C)(=O)=O)CCC4)ccn2)CC1 [Example 27] | 1000 to 2000 nM | 500 to 1000 nM |
| CC(C)n1ccc(S(=O)(=O)NC(=O)Nc2c(-c3ccnc(OC4CCOC4)c3)ccc3c2CCC3)n1 (stereo not drawn) [Example 70] | ≤ 250 nM | 500 to 1000 nM |
| CS(=O)(=O)NC(=O)Nc1c(-c2ccnc(OC3CCN(C4CC4)CC3)c2)ccc2c1CCC2 [Example 22] | ≤ 250 nM | 2000 to 5000 nM |
| CN(C)CC(C)(C)n1ccc(S(=O)(=O)NC(=O)Nc2c(-c3ccnc(OC4CC4)c3)ccc3c2CCO3)n1 [Example 64, N-((5-(2-Cyclopropoxypyridin-4-yl)-2,3-dihydrobenzofuran-4-yl)carbamoyl)-1-(1-(dimethylamino)-2-methylpropan-2-yl)-1H-pyrazole-3-sulfonamide] | ≤ 250 nM | 250 to 500 nM |
| Cc1cc2c(c(NC(=O)NS(C)(=O)=O)c1-c1ccnc(O[C@H]3CC[C@H](N(C)C)CC3)c1)CCC2 [Example 46] | ≤ 250 nM | ≤ 250 nM |
| Cc1cc2c(c(NC(=O)NS(=N)(=O)c3ccccc3)c1-c1ccnc(OC3CCN(C)CC3)c1)CCC2 (stereo not drawn) [Example 79, N-((6-Methyl-5-(2-((1-methylpiperidin-4-yl)oxy)pyridin-4-yl)-2,3-dihydro-1H-inden-4-yl)carbamoyl)benzenesulfonimidamide] | ≤ 250 nM | 1000 to 2000 nM |
| Cc1cc2c(c(NC(=O)NS(C)(=O)=O)c1-c1ccnc(OCC3CCCN(C)C3)c1)CCC2 (stereo not drawn) [Example 47] | ≤ 250 nM | ≤ 250 nM |
| CN1CCC(Oc2cc(-c3ccc4c(c3NC(=O)N=S(N)(=O)c3ccccc3)CCC4)ccn2)CC1 (stereo not drawn) [Example 78, N′-((5-(2-((1-Methylpiperidin-4-yl)oxy)pyridin-4-yl)-2,3-dihydro-1H-inden-4-yl)carbamoyl)benzenesulfonimidamide] | ≤ 250 nM | 2000 to 5000 nM |
| CN1CCC(Oc2cc(-c3cc(F)cc(C4CCCCC4)c3NC(=O)NS(C)(=O)=O)ccn2)CC1 [Example 39] | ≤ 250 nM | 1000 to 2000 nM |

| Compound | IC50 [1] | IC50 [2] |
| --- | --- | --- |
| CC1CC(Oc2cc(-c3ccc4c(c3NC(=O)NS(C)(=O)=O)CCC4)ccn2)CCO1 (stereo not drawn) [Example 8] | 250 to 500 nM | 1000 to 2000 nM |
| CN(C)C1CCC(Oc2cc(-c3ccc4c(c3NC(=O)NS(C)(=O)=O)CCC4)ccn2)CC1 (stereo not drawn) [Example 29] | ≤ 250 nM | ≤ 250 nM |
| CN(C)CC(C)(C)n1ccc(S(=O)(=O)NC(=O)Nc2c(-c3ccnc(OC4CC4)c3)ccc3c2CCC3)n1 [Example 66] | ≤ 250 nM | 250 to 500 nM |
| CC(C)n1ccc(S(=O)(=O)NC(=O)Nc2c(-c3ccnc(OC4CCN(C)C4)c3)ccc3c2CCC3)n1 (stereo not drawn) [Example 76] | 500 to 1000 nM | – |
| CO[C@H]1CC[C@@H](Oc2cc(-c3c(C)cc4c(c3NC(=O)NS(C)(=O)=O)CCC4)ccn2)CC1 [Example 55] | ≤ 250 nM | 500 to 1000 nM |
| O=C(Nc1c(-c2ccnc(OC3CC3)c2)ccc2c1CCO2)NS(=O)(=O)c1ccn(C2CC2)n1 [Example 71] | ≤ 250 nM | 500 to 1000 nM |
| Cc1c(-c2ccc3c(c2NC(=O)NS(C)(=O)=O)CCC3)ccnc1OC1CCN(C)CC1 [Example 15] | 250 to 500 nM | 250 to 500 nM |
| CC(C)c1cc(F)cc(-c2ccnc(N(C)C)c2)c1NC(=O)NS(=O)(=O)c1ccn(C(C)C)n1 [comp ex 3, reference compound] | 2000 to 5000 nM | – |
| CS(=O)(=O)NC(=O)Nc1c(-c2ccnc(O[C@H]3CC[C@@](C)(O)CC3)c2)ccc2c1CCC2 [Example 4] | ≤ 250 nM | 250 to 500 nM |
| CO[C@H]1CC[C@H](Oc2cc(-c3c(C)cc4c(c3NC(=O)NS(C)(=O)=O)CCC4)ccn2)CC1 [Example 54] | ≤ 250 nM | 500 to 1000 nM |
| C=CCN1CCC(Oc2cc(-c3ccc4c(c3NC(=O)NS(=O)(=O)CC=C)CCC4)ccn2)CC1 [Example 59, N-((5-(2-((1-Allylpiperidin-4-yl)oxy)pyridin-4-yl)-2,3-dihydro-1H-inden-4-yl)carbamoyl)prop-2-ene-1-sulfonamide] | ≤ 250 nM | 1000 to 2000 nM |
| CC(C)c1cc(F)cc(-c2ccnc(OC3CCN(C)CC3)c2)c1NC(=O)NS(C)(=O)=O [Example 43] | 500 to 1000 nM | ≤ 250 nM |
| CS(=O)(=O)NC(=O)Nc1c(-c2ccnc(OC3CCN(Cc4ccccc4)CC3)c2)ccc2c1CCC2 [Example 19] | ≤ 250 nM | 1000 to 2000 nM |
| O=C(Nc1c(-c2ccnc(OC3CC3)c2)ccc2c1CCC2)NS(=O)(=O)c1ccn(C2CC2)n1 [Example 72] | ≤ 250 nM | 1000 to 2000 nM |
| O=C(Nc1c(-c2ccnc(OC3CC3)c2)ccc2c1CCO2)NS(=O)(=O)c1ccn(C2CCC2)n1 [Example 67] | ≤ 250 nM | 500 to 1000 nM |
| CS(=O)(=O)NC(=O)Nc1c(-c2ccnc(OC3CCOCC3)c2)ccc2c1CCC2 [Example 33] | 250 to 500 nM | 1000 to 2000 nM |
| CC(C)n1ccc(S(=O)(=O)NC(=O)Nc2c(-c3ccnc(OC4CCN(C)CC4)c3)ccc3c2CCC3)n1 [Example 68, i-Isopropyl-N-((5-(2-((1-methylpiperidin-4-yl)oxy)pyridin-4-yl)-2,3-dihydro-1H-inden-4-yl)carbamoyl)-1H-pyrazole-3-sulfonamide] | ≤ 250 nM | 250 to 500 nM |
| CC(C)n1ccc(S(=O)(=O)NC(=O)Nc2c(-c3ccnc(C4CC4)c3)ccc3c2CCC3)n1 [Example 69] | ≤ 250 nM | 500 to 1000 nM |
| CO[C@H]1CC[C@@H](Oc2cc(-c3ccc4c(c3NC(=O)NS(C)(=O)=O)CCC4)ccn2)CC1 [Example 1, N-((5-(2-(((1s,4s)-4-Methoxycyclohexyl)oxy)pyridin-4-yl)-2,3-dihydro-1H-inden-4-yl)carbamoyl)methanesulfonamide] | ≤ 250 nM | 1000 to 2000 nM |
